In patent publication US10752690B2, “Biologically active molecule conjugates, reagents and methods of manufacture, and therapeutic uses” (REGENERON PHARMACEUTICALS, INC., priority 2014, dated 2020):
Residues, ends and D or L forms follow the SMILES beside them.

What was measured:
Assay type in all cases: cell-based
HEK293/hPRLR = assay: In vitro cytotoxicity assay (CCK8 cell viability), engineered HEK293/hPRLR cells; details: Homo sapiens, HEK293, 72 h
Protocol: (§1) Cells were seeded in Nunclon Delta Surface 96 well plates at 1000 (HEK293 and HEK293/PRLR) or 6000 (T47D) cells per well, and cells were grown overnight in complete growth media. For cell viability curves, serially diluted conjugates or free representative payloads were added to the cells at final concentrations ranging from 100 nM to 5 pM and incubated for 3 days. To measure viability, cells were incubated with CCK8 (Dojindo) for the final 1-3 hours and the absorbance at 450 nm (OD450) was determined on a Victor X4 (PerkinElmer). Background OD450 levels (CCK8) from digitonin ([…]) treated cells were subtracted from all wells and viability is expressed as a percentage of the untreated controls. IC50 values were determined from a four-parameter logistic equation over a 10-point response curve (GraphPad Prism). Maytansinoid conjugate curves and IC50 values are corrected for payload equivalents based on the UV DAR value. For the auristatin (MMAF) conjugate, the IC50 values are assigned a DAR of 1 (i.e., equal to antibody concentration) since a good estimate cannot be obtained by UV or mass spectrometry.

T47D = assay: In vitro cytotoxicity assay (CCK8 cell viability), endogenous cell line T47D; details: Homo sapiens, 72 h
Protocol: as §1

HEK293 = assay: In vitro cytotoxicity assay (CCK8 cell viability), native HEK293 cells (no target expressed); details: Homo sapiens, HEK293, 72 h
Protocol: as §1

Measured: IC50

CC[C@H](C)[C@@H]([C@@H](CC(=O)N1CCC[C@H]1[C@H](OC)[C@@H](C)C(=O)N[C@@H](Cc1ccccc1)C(=O)O)OC)N(C)C(=O)[C@@H](NC(=O)[C@@H](NC)C(C)C)C(C)C [compound 27, Monomethyl Auristatin F] (HELM PEPTIDE1{[meV].V.[CC[C@H](C)[C@@H]([C@@H](CC(=O)[*:2])OC)N(C)[*:1]].[CO[C@H]([C@@H](C)C(=O)[*:2])[C@@H]1CCCN1[*:1]].F}$$$$V2.0)
> 0.1 µM: all assays above
